Results from ChEMBL document CHEMBL2375302, “Synthesis, antimicrobial, antiquorum-sensing, antitumor and cytotoxic activities of new series of fused [1,3,4]thiadiazoles” (Eur J Med Chem, 2013).
Converted amounts (≈) assume the structure as drawn.

Tests used:
MCF7 = test: Growth inhibition of human MCF7 cells at 10 uM after 48 hrs by coulter counter analysis relative to control; format: functional; settings: MCF7, 48 h, read-out: GI
UACC-62 = test: Growth inhibition of human UACC62 cells at 10 uM after 48 hrs by coulter counter analysis relative to control; format: functional; settings: UACC-62, 48 h, read-out: GI
HOP-92 = test: Growth inhibition of human HOP92 cells at 10 uM after 48 hrs by coulter counter analysis relative to control; format: functional; settings: HOP-92, 48 h, read-out: GI
HL-60(TB) = test: Growth inhibition of human HL-60(TB) cells at 10 uM after 48 hrs by coulter counter analysis relative to control; format: functional; settings: HL-60, 48 h, read-out: GI
M14 = test: Growth inhibition of human M14 cells at 10 uM after 48 hrs by coulter counter analysis relative to control; format: functional; settings: M14, 48 h, read-out: GI
RPMI-8226 = test: Growth inhibition of human RPMI8226 cells at 10 uM after 48 hrs by coulter counter analysis relative to control; format: functional; settings: RPMI-8226, 48 h, read-out: GI
CCRF-CEM = test: Growth inhibition of human CCRF-CEM cells at 10 uM after 48 hrs by coulter counter analysis relative to control; format: functional; settings: read-out: GI
OVCAR-8 = test: Growth inhibition of human OVCAR8 cells at 10 uM after 48 hrs by coulter counter analysis relative to control; format: functional; settings: OVCAR-8, 48 h, read-out: GI
[1] = Growth inhibition of human NCI-ADR-RES cells at 10 uM after 48 hrs by coulter counter analysis relative to control; format: functional; settings: read-out: GI
SN12C = test: Growth inhibition of human SN12C cells at 10 uM after 48 hrs by coulter counter analysis relative to control; format: functional; settings: read-out: GI
SK-MEL-2 = test: Growth inhibition of human SK-MEL-2 cells at 10 uM after 48 hrs by coulter counter analysis relative to control; format: functional; settings: SK-MEL-2, 48 h, read-out: GI
[2] = system: Chromobacterium violaceum; test: Antiquorum-sensing activity against Chromobacterium violaceum ATCC 12472 after 48 hrs; format: functional
Escherichia coli = test: Antibacterial activity against Escherichia coli at 5 mg/mL after 24 hrs; format: functional; settings: read-out: DIZ
[3] = Toxicity against brine shrimp larvae assessed as mortality at 100 ug/mL after 24 hrs by binocular microscopic analysis relative to control; format: organism-based; settings: artemia salina, in vivo
HCT-15 = test: Growth inhibition of human HCT15 cells at 10 uM after 48 hrs by coulter counter analysis relative to control; format: functional; settings: HCT-15, 48 h, read-out: GI
NCI-H226 = test: Growth inhibition of human NCI-H226 cells at 10 uM after 48 hrs by coulter counter analysis relative to control; format: functional; settings: NCI-H226, 48 h, read-out: GI
T47D = test: Growth inhibition of human T47D cells at 10 uM after 48 hrs by coulter counter analysis relative to control; format: functional; settings: read-out: GI
A498 = test: Growth inhibition of human A498 cells at 10 uM after 48 hrs by coulter counter analysis relative to control; format: functional; settings: A498, 48 h, read-out: GI
SW-620 = test: Growth inhibition of human SW620 cells at 10 uM after 48 hrs by coulter counter analysis relative to control; format: functional; settings: SW-620, 48 h, read-out: GI
[4] = (§1) Toxicity against brine shrimp larvae assessed as mortality after 24 hrs by binocular microscopic analysis; format: organism-based; settings: artemia salina, in vivo
Artemia salina = test: as §1; format: organism-based; settings: in vivo, 24 h
[5] = Toxicity against brine shrimp larvae assessed as mortality at 500 ug/mL after 24 hrs by binocular microscopic analysis relative to control; format: organism-based; settings: artemia salina, in vivo
HOP-62 = test: Growth inhibition of human HOP62 cells at 10 uM after 48 hrs by coulter counter analysis relative to control; format: functional; settings: HOP-62, 48 h, read-out: GI
PC-3 = test: Growth inhibition of human PC3 cells at 10 uM after 48 hrs by coulter counter analysis relative to control; format: functional; settings: PC-3, 48 h, read-out: GI
Candida albicans = test: Antifungal activity against Candida albicans at 5 mg/mL after 48 hrs; format: functional; settings: read-out: DIZ
Staphylococcus aureus = test: Antibacterial activity against Staphylococcus aureus at 5 mg/mL after 24 hrs; format: functional; settings: read-out: DIZ
HT-29 = test: Growth inhibition of human HT-29 cells at 10 uM after 48 hrs by coulter counter analysis relative to control; format: functional; settings: HT-29, 48 h, read-out: GI
KM12 = test: Growth inhibition of human KM12 cells at 10 uM after 48 hrs by coulter counter analysis relative to control; format: functional; settings: KM12, 48 h, read-out: GI
UACC-257 = test: Growth inhibition of human UACC257 cells at 10 uM after 48 hrs by coulter counter analysis relative to control; format: functional; settings: UACC-257, 48 h, read-out: GI
Bacillus cereus = test: Antibacterial activity against Bacillus cereus at 5 mg/mL after 24 hrs; format: functional; settings: read-out: DIZ
MDA-MB-231 = test: Growth inhibition of human MDA-MB-231 cells at 10 uM after 48 hrs by coulter counter analysis relative to control; format: functional; settings: MDA-MB-231, 48 h, read-out: GI
HCT-116 = test: Growth inhibition of human HCT116 cells at 10 uM after 48 hrs by coulter counter analysis relative to control; format: functional; settings: HCT-116, 48 h, read-out: GI
OVCAR-4 = test: Growth inhibition of human OVCAR4 cells at 10 uM after 48 hrs by coulter counter analysis relative to control; format: functional; settings: OVCAR-4, 48 h, read-out: GI

Compound | inhibition of growth at 10 µM (MCF7) [%] | inhibition of growth at 10 µM (UACC-62) [%] | inhibition of growth at 10 µM (HOP-92) [%] | inhibition of growth at 10 µM (HL-60(TB)) [%] | inhibition of growth at 10 µM (M14) [%] | inhibition of growth at 10 µM (RPMI-8226) [%] | inhibition of growth at 10 µM (CCRF-CEM) [%] | inhibition of growth at 10 µM (OVCAR-8) [%] | inhibition of growth at 10 µM [1] [%] | inhibition of growth at 10 µM (SN12C) [%] | inhibition of growth at 10 µM (SK-MEL-2) [%] | diameter of the inhibition zone (DIZ) [2] [mm] | zone of inhibition at 5000 µg/mL (Escherichia coli) [mm] | mortality at 24 h, 100 ug/mL [3] [%] | inhibition of growth at 10 µM (HCT-15) [%] | inhibition of growth at 10 µM (NCI-H226) [%] | inhibition of growth at 10 µM (T47D) [%] | inhibition of growth at 10 µM (A498) [%] | inhibition of growth at 10 µM (SW-620) [%] | LC50 at 24 h [4] [µg/mL] | further results
CCOC(=O)C1C(=O)N=C2SC(S(N)(=O)=O)=NN2C1c1ccc(N(C)C)cc1 (centres undefined) | 10.2 | 13.7 | 51.2 | 21 | < 10 | < 10 | < 10 | < 10 | < 10 | < 10 | < 10 | <2 | < 2 | 83.3 | < 10 | < 10 | < 10 | 16.5 | < 10 | 405 (≈ 951 µM) | LC90 (Artemia salina): 728.74 µg/mL (≈ 1710 µM); mortality at 24 h, 500 ug/mL [5]: 93.3%; inhibition of growth at 10 µM (HOP-62): < 10%; inhibition of growth at 10 µM (PC-3): 11.4%; zone of inhibition at 5000 µg/mL (Candida albicans): 10 mm; zone of inhibition at 5000 µg/mL (Staphylococcus aureus): 5 mm; inhibition of growth at 10 µM (HT-29): < 10%; inhibition of growth at 10 µM (KM12): < 10%; inhibition of growth at 10 µM (UACC-257): < 10%; zone of inhibition at 5000 µg/mL (Bacillus cereus): 5 mm; inhibition of growth at 10 µM (MDA-MB-231): 34.6%; inhibition of growth at 10 µM (HCT-116): < 10%; inhibition of growth at 10 µM (OVCAR-4): < 10%
N#Cc1cnc2sc(S(N)(=O)=O)nn2c1=O | < 10 | < 10 | 12.3 | 18.4 | < 10 | < 10 | < 10 | < 10 | < 10 | < 10 | < 10 | 10 | 5 | 70 | < 10 | < 10 | < 10 | 34.2 | < 10 | 432 (≈ 1680 µM) | LC90 (Artemia salina): 777.87 µg/mL (≈ 3020 µM); mortality at 24 h, 500 ug/mL [5]: 83.3%; inhibition of growth at 10 µM (HOP-62): < 10%; inhibition of growth at 10 µM (PC-3): < 10%; zone of inhibition at 5000 µg/mL (Candida albicans): 4 mm; zone of inhibition at 5000 µg/mL (Staphylococcus aureus): 18 mm; inhibition of growth at 10 µM (HT-29): < 10%; inhibition of growth at 10 µM (KM12): < 10%; inhibition of growth at 10 µM (UACC-257): < 10%; zone of inhibition at 5000 µg/mL (Bacillus cereus): 2 mm; inhibition of growth at 10 µM (MDA-MB-231): < 10%; inhibition of growth at 10 µM (HCT-116): < 10%; inhibition of growth at 10 µM (OVCAR-4): < 10%
N#Cc1cnc2sc(S(N)(=O)=O)nn2c1=N | < 10 | < 10 | 20.3 | 29.3 | < 10 | < 10 | < 10 | < 10 | < 10 | < 10 | < 10 | 11 | < 2 | 80 | < 10 | < 10 | < 10 | 14.9 | < 10 | 419 (≈ 1640 µM) | LC90 (Artemia salina): 754.4 µg/mL (≈ 2940 µM); mortality at 24 h, 500 ug/mL [5]: 90%; inhibition of growth at 10 µM (HOP-62): 10.7%; inhibition of growth at 10 µM (PC-3): < 10%; zone of inhibition at 5000 µg/mL (Candida albicans): < 2 mm; zone of inhibition at 5000 µg/mL (Staphylococcus aureus): < 2 mm; inhibition of growth at 10 µM (HT-29): < 10%; inhibition of growth at 10 µM (KM12): < 10%; inhibition of growth at 10 µM (UACC-257): < 10%; zone of inhibition at 5000 µg/mL (Bacillus cereus): < 2 mm; inhibition of growth at 10 µM (MDA-MB-231): 12%; inhibition of growth at 10 µM (HCT-116): < 10%; inhibition of growth at 10 µM (OVCAR-4): < 10%
